Where two headings read alike, the source gives them in different places.

The conditions of experiment [1]: previously reported; cited from earlier work.
The conditions of experiment [2]: previously reported; cited from earlier work. This is another data set of the same source.
For experiment [3], the system named is extension templates (TT, TA, TC, and TG). Description: Nucleotide imbalance fidelity assay (rare base titration, NGS readout). Type of experiment: biochemical. From the text: Extension templates (TT, TA, TC, and TG) were designed for all four rare base contexts (Table 2). Templates were 100 bp in length and contained a single T, A, C, or G, or Error-Enriched Site (EES), near the middle of the template. Extension templates were designed to contain only three bases, with the exception of the EES (fourth base) and the extension primer-binding site. For each template type, the EES was flanked by 3 degenerate bases before the EES and 3 degenerate bases after the EES in order to create the following sequence context libraries: VVVTVVV, BBBABBB, DDDCDDD, and HHHGHHH (using IUPAC ambiguity codes). Because each of the 6 degenerate sites can be composed of 3 possible bases, each template library contained 729 (3^6) unique sequence contexts surrounding the EES. With the exception of the 6 bases flanking the EES, template sequences within a given library were identical. All templates contained a 3′ dideoxy-C modification to prevent extension from the template strand during a final PCR amplification step. Extension templates were purified via PAGE (Integrated DNA Technologies).
Individual annealing reactions were performed for each template type (TT, TA, TC, TG). Primer/template DNA was prepared by mixing PEXT with each template library in a 1:1.5 molar ratio (70 nM primer: 105 nM template) in a 1× reaction buffer specific to each DNA polymerase being tested (Table 1). The extension primer was annealed to template DNA by incubation at 95° C. for 2 minutes, followed by a −0.1° C./sec ramp until reaching 4° C.
Primer extension reactions were set up in duplicate for each condition being tested. Biological replicate reactions were performed in parallel, with the same annealed primer/template sample used for both replicates. For each DNA polymerase and rare base context of interest, 9 rare base concentrations were tested (log-fold dilutions from 10 μM-0.1 pM) while the concentration of the 3 non-rare bases was held constant at 10 μM (Bioline).
Primer extension reactions consisted of 1 μL of annealing reaction, 1× dNTP stocks ([…]+variable [dRTP]), variable DNA polymerase units, and 1×DNA polymerase reaction buffer in a 10 μL reaction. Extension reaction conditions for DNA polymerases tested are described in Table 1. Extension reactions were incubated for 1 hour and stored at −20° C. until purification. The Fluent Automated Liquid Handling Platform (Tecan) was used to set up all primer extension reactions.
The sample preparation pipeline for NGS was adapted from a previous protocol (Ref. 28; herein incorporated by reference in its entirety). Products from individual rare base extension reactions were column purified in 96-well plate format using the ZR-96 DNA Clean & Concentrator-5 (Deep well format) kit (Zymo Research). Purified DNA products were eluted in 10 μL of water and stored at −20° C. until ligation. Next, a 22 bp universal tag, common sequence 2 (CS2) of the Fluidigm Access Array Barcode Library for Illumina Sequencers (Fluidigm), synthesized as duplex DNA with a 5′ phosphate modification and PAGE purified (Integrated DNA Technologies, Table 2) was blunt-end ligated to the 3′ end of extended products. Ligation reactions were carried out in 10 μL volumes and consisted of 6 μL of purified product, 30 nM CS2 duplex DNA, 1× T4 DNA Ligase Reaction Buffer (New England Biolabs), and 2000 Units of T4 DNA Ligase (New England Biolabs). Ligation reactions were incubated at 16° C. for 16 hours. Ligated products were stored at −20° C. until PCR.
PCR was performed with barcoded primer sets from the Access Array Barcode Library for Illumina Sequencers (Fluidigm) to label extension products from up to 384 individual reactions. Each PCR primer set contained a unique barcode in the reverse primer. From 5′-3′, the forward PCR primer (PE1_CS1) contained a 25 base paired-end Illumina adapter 1 sequence followed by CS1. The binding target of the forward PCR primer was the reverse complement of the CS1 tag built into PEXT. […]

For experiment [4] the following is noted: previously reported; cited from earlier work. This is another data set of the same source.
For experiment [5] the following is noted: previously reported; cited from earlier work. The source holds these as a separate data set.
The conditions of experiment [6]: previously reported; cited from earlier work. This is another data set of the same source.
The conditions of experiment [7]: previously reported; cited from earlier work. The source holds these as a separate data set.
Experiment [8] relates to lacZ template. The conditions noted are these: cited from earlier work.
[9] abbreviates: "C" template context, lowest [dRTP] tested (10^−7 μM).
Where [10] appears, read: All Four Contexts, fit of duplicate data from all four template contexts (n = 8), average FC50.
The mark [11] stands for this setting: BBBABBB template context, n = 2.
Where [12] appears, read: DDDCDDD template context, n = 2.
Setting [13] is: HHHGHHH template context, n = 2.
[14] abbreviates: VVVTVVV template context, n = 2.

For the molecule “Taq: widely used commercial DNA polymerase (New England Biolabs)”, the “Error Rate” value in experiment [1] is reported as 0.00021 errors/bp; in experiment [2] it was 0.00018 errors/bp; in experiment [4], 0.0002 subs/bp; in experiment [5], 0.00011 subs/bp. Moreover, the preferred error type result in experiment [3] ("A" template context, lowest [dRTP] tested (10^−7 μM)) is reported as “A:dATP”; in experiment [3] (setting [9]), “C:dATP”; in experiment [3] ("G" template context, lowest [dRTP] tested (10^−7 μM)) it was “G:dTTP”. In addition, the FC50 in experiment [3] (setting [10]) came out at 0.00267 µM; in experiment [3] (setting [11]) it was 0.00261 µM; in experiment [3] (setting [12]) it was 0.00215 µM; in experiment [3] (setting [13]), 0.00208 µM; in experiment [3] (setting [14]), 0.00405 µM.
Turning to “Phi29: high fidelity polymerase with proofreading ability (New England Biolabs)”, the “Error Rate” value is given as 0.0000095 errors/bp in experiment [6] and 0.000003 errors/bp in experiment [7]. For the same molecule, the preferred error type entry in experiment [3] (setting [9]) is “C:dTTP”; in experiment [3] (DDDCDDD context, −1 G), “C:dATP”; in experiment [3] (DDDCDDD context, −1 T), “C:dTTP”. Further, the FC50 in experiment [3] (setting [10]) worked out at 0.000861 µM; in experiment [3] (setting [11]) it was 0.000877 µM; in experiment [3] (setting [12]) it was 0.00125 µM; in experiment [3] (setting [13]), 0.00139 µM; in experiment [3] (setting [14]), 0.000475 µM. The “estimated (FC50-derived) error rate versus mean of the two reported literature error rates” value in experiment [3] (average FC50 converted with Equation 9) was 2.7 fold.

B1: Sulfolobus solfataricus Dpo4: a close homologue of S. islandicus Dpo4, literature data (protein, UniProt Q97W02 1-352, looked up)
DNA polymerase IV: MIVLFVDFDYFYAQVEEVLNPSLKGKPVVVCVFSGRFEDSGAVATANYEARKFGVKAGIPIVEAKKILPNAVYLPMRKEVYQQVSSRIMNLLREYSEKIEIASIDEAYLDISDKVRDYREAYNLGLEIKNKILEKEKITVTVGISKNKVFAKIAADMAKPNGIKVIDDEEVKRLIRELDIADVPGIGNITAEKLKKLGINKLVDTLSIEFDKLKGMIGEAKAKYLISLARDEYNEPIRTRVRKSIGRIVTMKRNSRNLEEIKPYLFRAIEESYYKLDKRIPKAIHVVAVTEDLDIVSRGRTFPHGISKETAYSESVKLLQKILEEDERKIRRIGVRFSKFIEAIGLDKFFDT
As to B1, the error preferences result in experiment [8] (at A sites) is reported as “A:dATP>A:dCTP>A:dGTP”; in experiment [8] (at C sites) it was “C:dCTP>C:dATP=C:dTTP”; in experiment [8] (at G sites), “G:dTTP>G:dGTP>G:dATP”; in experiment [8] (at T sites), “T:dGTP>T:dCTP T:dTTP”.

(Values after patent publication US11613775B2, “Measuring DNA polymerase fidelity” (Northwestern University, priority 2017, dated 2023).)
